From PubChem BioAssay (NCI)
Values joined by “and” are separate entries in the source; they are usually repeats but may differ in a detail not shown here. Identical values can stand only once.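 A five-concentration, 48-hour dose response in 96-well plates underlies each endpoint, interpolated linearly between surrounding concentrations. GI50 marks 50% less growth. TGI: concentration producing complete growth inhibition.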

How the values were obtained:
Test in all cases: DTP human tumour cell line panel, 48 h
[1] = system: SK-OV-3 ovarian
[2] = system: HCT-116 colon
[3] = system: MOLT-4 leukemia
[4] = system: UO-31 renal
[5] = system: 786-0 renal
[6] = system: U251 CNS
[7] = system: CCRF-CEM leukemia
[8] = system: OVCAR-8 ovarian
[9] = system: MDA-MB-231 breast
[10] = system: SNB-19 CNS

| Compound | GI50 [1] | TGI [1] | GI50 [2] [µM] | TGI [2] | GI50 [3] [µM] | TGI [3] | GI50 [4] | TGI [4] | GI50 [5] | TGI [5] | GI50 [6] | TGI [6] | GI50 [7] [µM] | TGI [7] [µM] | GI50 [8] | TGI [8] | GI50 [9] [µM] | TGI [9] [µM] | GI50 [10] [µM] | TGI [10] [µM] |
| --- | --- | --- | --- | --- | --- | --- | --- | --- | --- | --- | --- | --- | --- | --- | --- | --- | --- | --- | --- | --- |
| CCN=C1C=CC(=C(c2ccc(N(C)C)cc2)c2ccc(N(C)C)cc2)c2ccccc21 | 0.105 µM | 0.455 µM | 0.0358 | 0.174 µM | 0.202 | 2.54 µM | 0.196 µM | 0.663 µM | 0.0866 µM | 0.37 µM | 0.0297 µM | 0.198 µM | 0.153 | 3.64 | 0.0816 µM | 1.7 µM | 0.171 | 1.3 | 0.217 | 4.21 |
| CC[C@H](Nc1nc(N)nc(C)c1C#N)c1nc2cccc(CN(C)c3ncc(C(=O)NO)cn3)c2c(=O)n1-c1ccccc1 | 0.969 µM | 3.22 µM | 0.364 | 2.92 µM | 0.204 | > 50 µM | 1 µM | 3.05 µM | 1.53 µM | 6.47 µM | 0.663 µM | 2.03 µM | 0.228 | > 50 | 0.704 µM | 10.3 µM | 0.779 | 3.08 | 0.827 | 6.4 |
| COc1cc2c(cc1OC)-c1ccc3cc4c(cc3c1N(CCN1CCCC1)C2)OCO4 | 0.526 µM | 5.51 µM | 0.477 | 1.76 µM | 0.228 | 3.44 µM | 1.51 µM | 4.09 µM | 0.477 µM | 1.92 µM | 0.563 µM | 1.9 µM | 0.186 | 4.36 | 0.404 µM | 2.06 µM | 1.27 | 3.3 | 0.543 | 1.85 |
| CCc1ccc(NCc2cc(OC)c(OC)c(OC)c2)cc1 | 0.315 µM and 0.152 µM | 9.02 µM and 16.9 µM |  | 10.2 µM and 27.4 µM |  | 87.2 µM and > 91.5 µM | 1.37 µM and 3.95 µM | 55.8 µM and 62.6 µM | 0.369 µM and 0.77 µM | 17.3 µM and > 38.5 µM | 0.411 µM and 0.167 µM | 22.2 µM and 11.9 µM |  | > 77.9 | 0.687 µM and 1.45 µM | 43.6 µM and 48.1 µM | 1.27 | > 100 | 1.14 | > 100 |
| Cc1cc(N2CCCCC2)nc(N(CCNc2ccnc3cc(Cl)ccc23)Cc2ccco2)n1 | 2.15 µM | 4.9 µM | 1.41 | 2.84 µM | 2.29 | 5.31 µM | 1.41 µM | 2.77 µM | 1.66 µM | 3.07 µM | 1.73 µM | 3.19 µM | 2.47 | 8.76 | 1.85 µM | 3.68 µM | 1.83 | 3.53 | 3.26 | 12 |
| Nc1ncnc2sc(=S)c3c(c12)CCC3 | 89 µM | > 100 µM | 31.8 | > 100 µM | 23.2 | 69.7 µM | 43.8 µM | > 100 µM | 46.6 µM | > 100 µM | 45.8 µM | > 100 µM | 27.1 | 79.5 | 37.7 µM | > 100 µM | 30.4 | > 100 | 29.2 | 82.9 |
| N#CSc1ncnc2nc[nH]c12 | 2.42 µM | > 100 µM | 3.04 | > 100 µM | 4.28 | > 100 µM | 10.4 µM | > 100 µM | 3.53 µM | > 100 µM | 32.4 µM | > 100 µM | 3.32 | > 100 | 5.72 µM | > 100 µM | 11.2 | > 100 | > 100 | > 100 |
| COc1ccc(C(=O)/C=C/c2ccc(Cl)cc2)cc1S(=O)(=O)Nc1c(N)nc(SC)[nH]c1=O | 3.65 µM | 13.4 µM | 1.56 | 2.94 µM | 3.71 | 18.7 µM | 1.89 µM | 4.53 µM | 1.95 µM | 4.13 µM | 1.58 µM | 3.12 µM | 2.66 | 8.97 | 3.07 µM | 9.56 µM | 3.42 | 10.5 | 2.52 | 8.34 |
| Cc1ccc2[nH]c(C(=O)NN3C(=O)CSC34CCCCC4C)c(-c3ccccc3)c2c1 (configuration not stated) | 21.4 µM | 47.1 µM | 14.5 | 34.2 µM | 9.38 | 28.4 µM | 15.5 µM | 30.9 µM | 17.3 µM | 37.9 µM | 16.8 µM | 32.7 µM | 17 | 38.5 | 17.2 µM | 35.6 µM | 17 | 34.5 | 19.2 | 42.6 |
| O=C(O)CS(=O)(=O)C(c1ccccc1)c1ccccc1 |  | > 100 µM |  | > 100 µM |  | > 100 µM |  | > 100 µM |  | > 100 µM |  | > 100 µM |  | > 100 |  | > 100 µM |  | > 100 |  | > 100 |
